Where two headings read alike, the source gives them in different places.
Key:
[1] = MTT cytotoxicity assay, MCF12A; assay type: cell-based; conditions: human, MCF12A non-malignant breast epithelial cells, MTT, read-out: Cytotoxicity assays (MTT) IC50 MCF12A
Protocol: (§1) Human estrogen-receptor positive (ER+) breast adenocarcinoma cell lines, MCF7 and T47D, were maintained in Roswell Park Memorial Institute-1640 medium (Sigma Aldrich, Missouri, USA) and the human epidermal growth factor receptor 2 positive (HER2+) BT474, and triple negative (TNBC) MDA-MB-231 and MDA-MB-468 cells were maintained in Dulbecco's Modified Eagle's Medium (DMEM) (Sigma Aldrich, Missouri, USA). […]
(§2) Cells (3.5×10^3-6×10^3 / well) were seeded in 96-well plates and treated at a 60-70 % confluence with a range of concentrations (0-10 μM) of test compounds or vehicle for 48 h. Cell viability was measured using the 3-(4,5-dimethylthiazol-2-yl)-2,5-diphenyl-trazolium bromide (MTT) assay (11465007001; Sigma Aldrich) according to the manufacturer's instructions. Mean cell viability was calculated as a percentage of the mean vehicle control. A minimum of three independent experiments in quadruplicate were performed from which the IC50 was determined from sigmoidal plots using GraphPad Prism version 6.0 (GraphPad Software, California, USA). The selectivity index (SI) was determined by dividing the IC50 of a non-malignant cell line by the IC50 of a cancer cell line. […]

[2] = tested on: MCF12A (normal breast epithelial cell line); assay: MTT cytotoxicity assay, MCF12A; assay type: cell-based; conditions: Homo sapiens, MCF-12A, 48 h, Fig 2C summary, MTT 48 h; read-out: IC50 ± SEM MCF12A
Protocol: as §1, §2

[3] = tested on: BT474 (HER2+) breast cancer cells; assay: MTT cytotoxicity assay, BT474; assay type: cell-based; conditions: Homo sapiens, BT-474
Protocol: as §1
Cells (3.5×10^3-6×10^3 / well) were seeded in 96-well plates and treated at a 60-70 % confluence with a range of concentrations (0-10 μM) of test compounds or vehicle for 48 h. Cell viability was measured using the 3-(4,5-dimethylthiazol-2-yl)-2,5-diphenyl-trazolium bromide (MTT) assay (11465007001; Sigma Aldrich) according to the manufacturer's instructions. Mean cell viability was calculated as a percentage of the mean vehicle control. A minimum of three independent experiments in quadruplicate were performed from which the IC50 was determined from sigmoidal plots using GraphPad Prism version 6.0 (GraphPad Software, California, USA). The selectivity index (SI) was determined by dividing the IC50 of a non-malignant cell line by the IC50 of a cancer cell line.

[4] = molecular target: T1, PIK3C2G (Homo sapiens, UniProt O75747); assay: ADP-Glo lipid kinase assay, PIK3C2G; assay type: biochemical
T1 construct: purchased Carna Biosciences Inc; Invitrogen Corporation
Protocol: (§3) A non-radiometric kinase assay (ADP-Glo™ Assay, Promega, Madison, Wi, USA) was used for measuring the kinase activity of the 2 lipid kinases, phosphatidylinositol 4-kinase beta (encoded by the PI4KB gene) and phosphatidylinositol-4-Phosphate 3-Kinase Catalytic Subunit Type 2 Gamma (encoded by the PIK3C2G gene). All kinase assays were performed in 96-well half-area microtiter plates from Greiner Bio-One (Frickenhausen, Germany) in 25 µl reaction volumes. […] In addition, the assay for PI4KB contained 3 mM MnCl2 and the assay for PIK3C2G contained 3 mM MgCl2. Kinases from external vendors (Carna Biosciences Inc.; Invitrogen Corporation; Millipore Corporation) were expressed, purified and quality-controlled by virtue of the vendors readings. The reaction cocktails were incubated at 30 °C for 60 min. The reaction was stopped with 25 µl ADP-Glo reagent per well. Plates were incubated for 40 min at RT, followed by the addition of 50 µl kinase detection reagent per well and incubation for 60 min at RT. Signal was determined with a microplate luminescence reader (Victor, Perkin Elmer). […]
(§4) For each kinase, the median value of the counts per second (cps) of three wells with complete reaction cocktails, but without kinase, was defined as "low control" (n=3). […] The residual activity (in %) for each well of each row of a particular plate was calculated by using the following formula: […]

[5] = molecular target: T2, PI4KB (Homo sapiens, UniProt Q9UBF8); assay: ADP-Glo lipid kinase assay, PI4KB; assay type: biochemical
T2 construct: purchased Carna Biosciences Inc; Invitrogen Corporation
Protocol: as §3, §4

[6] = molecular target: T3, PIK3C2A (Homo sapiens, UniProt O00443); assay: ADP-Glo lipid kinase assay, PIK3C2A; assay type: biochemical; conditions: 10 µM compound
T3 construct: purchased Carna Biosciences Inc; Invitrogen Corporation

[7] = molecular target: T4, PI4K2A (Homo sapiens, UniProt Q9BTU6); assay: ADP-Glo lipid kinase assay, PI4K2A; assay type: biochemical; conditions: 10 µM compound
T4 construct: purchased Carna Biosciences Inc; Invitrogen Corporation

[8] = tested on: MCF7 cells; assay: Clonogenic survival assay, MCF7; assay type: cell-based, human; conditions: IC50, 2 x IC50, 4 x IC50 for 24 h
Protocol: Cells were pre-cultured and treated with the indicated concentrations of MMV652103 for 24 h, washed, collected and re-plated, in drug-free medium, at 1000-2000 cells per well in 35 mm dishes, in triplicate. After 10-21 days the surviving cells were fixed with 3:1 methanol: acetic acid and stained with 0.5 % crystal violet (Sigma-Aldrich, USA) in 100 % methanol. Quantification of colonies was performed using ImageJ 1.5J8 software (USA) (Schneider et al., 2012[73]). Number of colonies was determined for each drug concentration and expressed as a percentage of the vehicle treated control.

T1 sequence (O75747 whole entry): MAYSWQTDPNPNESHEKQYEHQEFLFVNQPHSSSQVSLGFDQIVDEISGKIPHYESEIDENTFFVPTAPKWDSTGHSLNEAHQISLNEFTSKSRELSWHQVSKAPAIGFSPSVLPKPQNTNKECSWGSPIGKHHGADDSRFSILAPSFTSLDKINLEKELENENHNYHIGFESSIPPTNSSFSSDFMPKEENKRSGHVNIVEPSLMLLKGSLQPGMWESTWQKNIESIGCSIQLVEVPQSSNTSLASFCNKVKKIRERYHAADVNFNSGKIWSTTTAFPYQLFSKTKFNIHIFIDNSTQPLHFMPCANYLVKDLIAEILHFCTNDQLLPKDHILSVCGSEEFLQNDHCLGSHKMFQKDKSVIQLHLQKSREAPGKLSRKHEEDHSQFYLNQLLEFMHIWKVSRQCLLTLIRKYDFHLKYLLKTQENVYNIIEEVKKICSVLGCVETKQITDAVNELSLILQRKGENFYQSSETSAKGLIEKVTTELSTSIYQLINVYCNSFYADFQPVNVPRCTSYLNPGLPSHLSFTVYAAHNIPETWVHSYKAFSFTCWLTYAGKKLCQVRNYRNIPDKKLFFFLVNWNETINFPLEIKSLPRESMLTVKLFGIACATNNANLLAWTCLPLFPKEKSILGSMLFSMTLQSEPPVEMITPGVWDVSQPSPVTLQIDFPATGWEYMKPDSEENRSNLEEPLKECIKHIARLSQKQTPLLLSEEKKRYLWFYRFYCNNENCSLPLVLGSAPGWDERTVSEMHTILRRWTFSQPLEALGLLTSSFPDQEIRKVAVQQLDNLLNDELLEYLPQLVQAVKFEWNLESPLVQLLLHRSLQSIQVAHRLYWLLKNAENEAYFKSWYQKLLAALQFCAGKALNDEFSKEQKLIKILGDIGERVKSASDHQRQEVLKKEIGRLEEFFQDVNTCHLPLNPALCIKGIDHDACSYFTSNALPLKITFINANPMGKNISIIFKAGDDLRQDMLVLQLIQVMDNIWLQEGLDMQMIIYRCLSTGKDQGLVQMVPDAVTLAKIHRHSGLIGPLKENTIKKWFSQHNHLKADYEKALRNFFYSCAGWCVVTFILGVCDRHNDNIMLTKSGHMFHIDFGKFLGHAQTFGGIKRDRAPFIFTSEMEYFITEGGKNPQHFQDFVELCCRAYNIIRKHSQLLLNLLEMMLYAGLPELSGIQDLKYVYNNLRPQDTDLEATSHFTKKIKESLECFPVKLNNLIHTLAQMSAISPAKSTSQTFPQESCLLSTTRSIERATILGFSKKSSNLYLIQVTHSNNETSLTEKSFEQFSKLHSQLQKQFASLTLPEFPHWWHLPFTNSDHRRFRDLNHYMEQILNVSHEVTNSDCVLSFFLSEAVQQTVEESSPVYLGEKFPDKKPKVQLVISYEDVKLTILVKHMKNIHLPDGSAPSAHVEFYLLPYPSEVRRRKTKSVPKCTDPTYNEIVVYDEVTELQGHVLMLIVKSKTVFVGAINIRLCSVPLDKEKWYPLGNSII
T2 sequence (Q9UBF8 whole entry): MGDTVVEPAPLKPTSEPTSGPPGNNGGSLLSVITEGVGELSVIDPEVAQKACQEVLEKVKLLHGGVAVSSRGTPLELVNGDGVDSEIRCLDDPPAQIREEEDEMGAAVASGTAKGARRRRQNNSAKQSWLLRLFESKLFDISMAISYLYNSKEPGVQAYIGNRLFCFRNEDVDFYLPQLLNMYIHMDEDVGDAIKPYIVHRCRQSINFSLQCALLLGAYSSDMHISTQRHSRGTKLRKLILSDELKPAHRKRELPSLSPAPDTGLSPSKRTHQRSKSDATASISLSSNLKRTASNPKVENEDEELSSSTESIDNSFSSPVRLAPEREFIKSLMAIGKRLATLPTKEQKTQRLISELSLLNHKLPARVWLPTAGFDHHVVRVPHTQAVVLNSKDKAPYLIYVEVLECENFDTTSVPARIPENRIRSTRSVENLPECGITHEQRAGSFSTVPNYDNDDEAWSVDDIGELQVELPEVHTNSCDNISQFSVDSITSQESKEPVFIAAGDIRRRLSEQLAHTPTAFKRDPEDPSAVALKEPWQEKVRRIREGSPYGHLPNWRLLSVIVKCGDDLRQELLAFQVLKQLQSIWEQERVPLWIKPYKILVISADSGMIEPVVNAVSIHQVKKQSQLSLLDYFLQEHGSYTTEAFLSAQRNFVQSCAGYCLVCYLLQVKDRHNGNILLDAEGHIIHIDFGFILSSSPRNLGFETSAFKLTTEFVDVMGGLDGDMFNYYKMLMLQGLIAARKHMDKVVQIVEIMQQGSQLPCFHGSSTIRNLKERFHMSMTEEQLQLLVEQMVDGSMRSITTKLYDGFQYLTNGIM
T4 sequence (Q9BTU6 whole entry): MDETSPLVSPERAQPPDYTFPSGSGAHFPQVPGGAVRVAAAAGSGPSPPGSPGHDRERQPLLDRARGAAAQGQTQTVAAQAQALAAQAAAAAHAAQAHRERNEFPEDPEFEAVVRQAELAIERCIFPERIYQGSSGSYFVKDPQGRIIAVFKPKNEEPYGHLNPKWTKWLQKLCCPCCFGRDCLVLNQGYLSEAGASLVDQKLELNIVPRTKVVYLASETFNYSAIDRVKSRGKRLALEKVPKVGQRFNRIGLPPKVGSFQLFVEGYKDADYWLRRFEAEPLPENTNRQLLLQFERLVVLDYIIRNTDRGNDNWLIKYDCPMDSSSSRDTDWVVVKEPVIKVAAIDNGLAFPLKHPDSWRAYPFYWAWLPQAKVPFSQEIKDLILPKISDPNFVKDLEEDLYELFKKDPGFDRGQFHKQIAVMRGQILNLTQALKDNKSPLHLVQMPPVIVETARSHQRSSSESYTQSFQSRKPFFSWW
T3 sequence (O00443 whole entry): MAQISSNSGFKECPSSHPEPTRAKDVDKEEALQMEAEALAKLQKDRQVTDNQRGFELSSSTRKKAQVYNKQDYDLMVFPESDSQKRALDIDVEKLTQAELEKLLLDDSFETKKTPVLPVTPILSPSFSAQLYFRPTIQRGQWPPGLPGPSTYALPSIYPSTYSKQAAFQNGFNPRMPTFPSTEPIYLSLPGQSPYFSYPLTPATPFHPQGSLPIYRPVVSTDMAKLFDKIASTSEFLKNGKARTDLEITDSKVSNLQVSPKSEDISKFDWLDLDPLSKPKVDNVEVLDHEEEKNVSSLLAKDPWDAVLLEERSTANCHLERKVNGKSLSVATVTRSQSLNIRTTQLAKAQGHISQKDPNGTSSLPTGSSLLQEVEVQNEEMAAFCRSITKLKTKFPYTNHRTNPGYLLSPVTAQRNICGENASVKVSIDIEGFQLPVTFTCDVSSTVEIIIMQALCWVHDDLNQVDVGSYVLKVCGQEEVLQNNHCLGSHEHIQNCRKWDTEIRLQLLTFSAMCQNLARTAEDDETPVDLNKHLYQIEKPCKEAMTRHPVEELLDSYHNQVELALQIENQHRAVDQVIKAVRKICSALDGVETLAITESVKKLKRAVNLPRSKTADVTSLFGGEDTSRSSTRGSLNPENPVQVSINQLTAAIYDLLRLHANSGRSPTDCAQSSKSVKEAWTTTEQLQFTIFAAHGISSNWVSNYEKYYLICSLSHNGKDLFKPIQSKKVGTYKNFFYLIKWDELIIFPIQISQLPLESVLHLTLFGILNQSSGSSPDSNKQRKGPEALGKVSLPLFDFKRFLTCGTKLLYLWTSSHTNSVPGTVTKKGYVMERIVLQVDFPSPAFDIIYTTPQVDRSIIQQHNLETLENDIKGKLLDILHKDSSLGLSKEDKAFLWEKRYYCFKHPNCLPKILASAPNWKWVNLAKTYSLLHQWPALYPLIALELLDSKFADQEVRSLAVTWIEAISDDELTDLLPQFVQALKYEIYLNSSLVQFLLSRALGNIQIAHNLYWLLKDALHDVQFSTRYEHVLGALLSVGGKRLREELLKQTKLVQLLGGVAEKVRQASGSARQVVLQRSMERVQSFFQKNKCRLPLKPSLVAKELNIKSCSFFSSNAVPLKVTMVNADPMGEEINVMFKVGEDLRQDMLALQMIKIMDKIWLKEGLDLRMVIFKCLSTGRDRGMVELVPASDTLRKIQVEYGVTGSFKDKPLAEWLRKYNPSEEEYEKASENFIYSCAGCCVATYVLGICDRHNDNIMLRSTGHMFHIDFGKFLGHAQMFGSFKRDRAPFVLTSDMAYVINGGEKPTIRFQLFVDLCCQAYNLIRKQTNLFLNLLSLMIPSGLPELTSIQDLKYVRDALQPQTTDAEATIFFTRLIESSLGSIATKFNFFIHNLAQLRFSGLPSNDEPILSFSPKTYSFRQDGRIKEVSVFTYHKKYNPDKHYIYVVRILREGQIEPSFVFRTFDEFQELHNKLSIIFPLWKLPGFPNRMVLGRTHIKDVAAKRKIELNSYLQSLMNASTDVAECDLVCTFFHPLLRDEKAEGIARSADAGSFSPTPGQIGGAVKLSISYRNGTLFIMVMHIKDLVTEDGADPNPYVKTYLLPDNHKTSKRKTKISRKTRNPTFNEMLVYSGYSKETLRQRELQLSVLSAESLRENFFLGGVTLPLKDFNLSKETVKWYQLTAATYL

`CS(=O)(=O)c1ccc(-c2cnc3ccc(-c4cccc(S(C)(=O)=O)c4)nn23)cc1` [MMV652103] showed an IC50 at 48 h [1] of 6.64 µM, an IC50 [2] of 6.6 ± 1.07 µM and an IC50 ([3]; Fig 2C summary, MTT 48 h, read-out: IC50 ± SEM BT474) of 7.3 ± 1.05 µM. It also gave an IC50 ([3]; MTT, 48 h, read-out: IC50 BT474) of 7.3 µM, a remaining activity at 10 µM ([4]; 10 µM compound) of 4% and an IC50 ([4]; ADP-Glo) of 0.085 µM. It also gave a remaining activity at 10 µM ([5]; 10 µM compound) of 23%, an IC50 ([5]; ADP-Glo) of 1.7 µM and a remaining activity at 10 µM [6] of 39%. For the same molecule, the remaining activity at 10 µM [7] was 42% and the “number of MCF7 cell colonies” value [8] was “dose-dependent reduction”.
